# Assay results published in US20120004182A1, “PHARMACEUTICAL COMPOSITIONS AND METHODS FOR INDUCTION AND ENHANCEMENT OF APOPTOSIS IN TUMOR CELLS” (priority 2010, published 2012).
# Tested on: human breast tumors
# Experiment: In vivo studies in nude mice bearing s.c. tumors
# Conditions: intraperitoneal, every 2 days, 10 days of treatment, 25 nmol antagonist, 1 μmol 4OH-Tamoxifen per mouse
# Source text: Female athymic (nude) mice (CD1 nu/nu), 6 to 8 weeks old on arrival, were obtained from Charles River (Sulzfeld, Germany). The mice were housed in sterile cages in a temperature-controlled room with 12-hour light/12-hour dark schedule and were fed autoclaved chow and water ad libitum. All experiments were done according to the German ethical guidelines and the German laws for protection of animals.
# Tumors were initiated by subcutaneous injection of 1×10^7 cancer cells into the right flank. After 2 weeks all animals had developed solid tumors of about 200 mm^3 and treatment was initiated. The in vivo experiments were done as follows: 25 nmol of GnRH-II antagonist of Seq. ID. No. 23 without or with 1 μmol of 40H-Tamoxifen per mouse (5 mice per group and control group) were injected intraperitoneally. Treatment was repeated every 2 days. Tumor volumes were measured. The mice were killed after 10 days of treatment. […]
# The proliferation and induction of apoptosis were analyzed after treatment without or with a GnRH-II antagonist without or with co-treatment with 4OH-Tamoxifen. Nude mice bearing human breast tumors s.c. were treated without or with a GnRH-II antagonist alone or in combination with 4OH-Tamoxifen and the tumor volumes were measured.
row,Molecule,tumor volume
1,Ac-D-2Nal-D-4 Cpa-D-3 Pal-Ser-His-D-3 Pal-Trp-Leu-Pro-D-Ala-NH2 [GnRH II antagonist],increases
2,CC/C(=C(\c1ccccc1)c1ccc(OCCN(C)C)cc1)c1ccccc1 [Tamoxifen],increases
